In ChEMBL document CHEMBL1150232, “Microspinosamide, a new HIV-inhibitory cyclic depsipeptide from the marine sponge Sidonops microspinosa” (J Nat Prod, 2001):
Converted amounts (≈) assume the structure as drawn.

Tests used:
[1] = system: Human immunodeficiency virus 1; test: Antiviral activity against HIV1 infected in human CEM-SS cells assessed as inhibition of virus-induced cytopathic effect by XTT assay; type: functional, organism-based; conditions: Human immunodeficiency virus 1, CEM-SS
CEM-SS = test: Cytotoxicity against human CEM-SS cells; type: cell-based

In the case of CCC(C)(C)[C@H](NC(=O)[C@H](NC(=O)[C@@H]1CCCN1C(=O)C(NC(=O)[C@@H](C)NC=O)C(O)c1ccc(Br)cc1)C(C)(C)C)C(=O)N[C@H](Cc1c[nH]c2ccccc12)C(=O)N[C@@H](CCCNC(=N)N)C(=O)N[C@H](CS(=O)(=O)O)C(=O)N[C@@H]1C(=O)N(C)[C@@H](CCC(N)=O)C(=O)N[C@H](C(C)C)C(=O)N2CCC[C@H]2C(=O)N[C@H](CC(=O)O)C(=O)O[C@@H]1C (some centres not stated) [MICROSPINOSAMIDE], the EC50 [1] is reported as 0.2 µg/mL (≈ 0.116 µM) and the IC50 (CEM-SS) is reported as 3 µg/mL (≈ 1.74 µM).
